Reference: ChEMBL document CHEMBL4507301 (2021)

How the values were obtained:
[1] = biological target: Serine/threonine-protein kinase SIK1 (Homo sapiens) (UniProt P57059); conditions: Compound concentration 1000.0 nM
[2] = biological target: Mitogen-activated protein kinase kinase kinase 1 (Homo sapiens) (UniProt Q13233); conditions: Compound concentration 1000.0 nM
[3] = biological target: Tyrosine-protein kinase SYK (Homo sapiens) (UniProt P43405); conditions: Compound concentration 1000.0 nM
[4] = biological target: Casein kinase I isoform alpha-like (Homo sapiens) (UniProt Q8N752); conditions: Compound concentration 1000.0 nM
Casein kinase I isoform alpha-like (Homo sapiens), sequence (Q8N752 whole entry, canonical isoform): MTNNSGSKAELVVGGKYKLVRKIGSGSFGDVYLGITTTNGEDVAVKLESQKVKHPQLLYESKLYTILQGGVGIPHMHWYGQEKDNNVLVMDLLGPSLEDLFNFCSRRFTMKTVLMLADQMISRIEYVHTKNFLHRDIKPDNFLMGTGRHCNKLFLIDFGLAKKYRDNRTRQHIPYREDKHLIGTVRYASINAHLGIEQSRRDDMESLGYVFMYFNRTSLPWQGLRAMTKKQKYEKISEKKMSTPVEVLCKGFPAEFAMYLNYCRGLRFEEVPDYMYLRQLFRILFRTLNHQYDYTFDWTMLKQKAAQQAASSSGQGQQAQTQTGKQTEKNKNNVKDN

[5] = biological target: Serine/threonine-protein kinase VRK2 (Homo sapiens) (UniProt Q86Y07); conditions: Compound concentration 1000.0 nM
[6] = biological target: Aurora kinase A (Homo sapiens) (UniProt O14965); conditions: Compound concentration 1000.0 nM
[7] = tested on: Epidermal growth factor receptor (Homo sapiens), P00533 [UNDEFINED MUTATION]; conditions: Compound concentration 1000.0 nM
Epidermal growth factor receptor (Homo sapiens), P00533 [UNDEFINED MUTATION], sequence (P00533 whole entry, looked up, stated change not applied, canonical isoform): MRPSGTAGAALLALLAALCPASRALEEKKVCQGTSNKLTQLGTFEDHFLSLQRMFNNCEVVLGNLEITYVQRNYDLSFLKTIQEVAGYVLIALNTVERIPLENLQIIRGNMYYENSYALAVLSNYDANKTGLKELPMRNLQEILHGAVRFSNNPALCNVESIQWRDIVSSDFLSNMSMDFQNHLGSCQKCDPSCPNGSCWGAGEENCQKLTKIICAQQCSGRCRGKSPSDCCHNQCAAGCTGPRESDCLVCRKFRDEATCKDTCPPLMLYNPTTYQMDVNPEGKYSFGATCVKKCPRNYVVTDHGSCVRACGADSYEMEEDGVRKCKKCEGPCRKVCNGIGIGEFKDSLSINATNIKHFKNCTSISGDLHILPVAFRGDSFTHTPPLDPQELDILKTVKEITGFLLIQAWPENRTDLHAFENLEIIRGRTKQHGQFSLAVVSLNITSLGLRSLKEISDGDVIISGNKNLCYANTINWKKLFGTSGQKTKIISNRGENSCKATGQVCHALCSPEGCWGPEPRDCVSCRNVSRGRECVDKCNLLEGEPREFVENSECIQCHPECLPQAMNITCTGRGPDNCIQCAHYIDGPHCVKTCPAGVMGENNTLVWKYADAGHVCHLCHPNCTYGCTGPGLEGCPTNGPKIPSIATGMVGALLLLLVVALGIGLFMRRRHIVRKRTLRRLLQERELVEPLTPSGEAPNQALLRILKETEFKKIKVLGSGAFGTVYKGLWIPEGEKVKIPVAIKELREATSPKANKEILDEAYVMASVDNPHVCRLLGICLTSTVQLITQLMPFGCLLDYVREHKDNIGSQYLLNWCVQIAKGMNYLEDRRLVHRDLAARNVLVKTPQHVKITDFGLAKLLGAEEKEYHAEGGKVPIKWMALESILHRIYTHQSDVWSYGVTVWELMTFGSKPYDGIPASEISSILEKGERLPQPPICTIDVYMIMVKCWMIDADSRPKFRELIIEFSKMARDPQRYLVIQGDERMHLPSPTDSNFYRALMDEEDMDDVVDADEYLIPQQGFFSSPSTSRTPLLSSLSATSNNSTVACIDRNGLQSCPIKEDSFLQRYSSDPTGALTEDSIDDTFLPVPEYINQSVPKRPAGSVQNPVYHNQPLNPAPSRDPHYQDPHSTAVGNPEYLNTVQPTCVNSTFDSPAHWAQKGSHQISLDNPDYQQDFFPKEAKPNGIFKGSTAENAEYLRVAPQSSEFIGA

[8] = biological target: Casein kinase I isoform delta (Homo sapiens) (UniProt P48730); conditions: Compound concentration 1000.0 nM
[9] = biological target: Tyrosine-protein kinase Yes (Homo sapiens) (UniProt P07947); conditions: Compound concentration 1000.0 nM
[10] = biological target: Sodium-dependent serotonin transporter (Homo sapiens) (UniProt P31645); conditions: Compound concentration 10.0 uM
[11] = tested on: Receptor-type tyrosine-protein kinase FLT3 (Homo sapiens), P36888 [R834Q]; conditions: Compound concentration 1000.0 nM
[12] = biological target: Cyclin-dependent kinase 5 (Homo sapiens) (UniProt Q00535); conditions: Compound concentration 1000.0 nM
[13] = biological target: Calcium/calmodulin-dependent protein kinase type II subunit gamma (Homo sapiens) (UniProt Q13555); conditions: Compound concentration 1000.0 nM
[14] = biological target: Tyrosine-protein kinase receptor Tie-1 (Homo sapiens) (UniProt P35590); conditions: Compound concentration 1000.0 nM
[15] = biological target: Mitogen-activated protein kinase kinase kinase kinase 4 (Homo sapiens) (UniProt O95819); conditions: Compound concentration 1000.0 nM
[16] = biological target: Serine/threonine-protein kinase RIO2 (Homo sapiens) (UniProt Q9BVS4); conditions: Compound concentration 1000.0 nM
[17] = tested on: Tyrosine-protein kinase ABL1 (Homo sapiens), P00519 [Y253F]; conditions: Compound concentration 1000.0 nM
[18] = biological target: Wee1-like protein kinase 2 (Homo sapiens) (UniProt P0C1S8); conditions: Compound concentration 1000.0 nM
Wee1-like protein kinase 2 (Homo sapiens), sequence (P0C1S8 whole entry, looked up): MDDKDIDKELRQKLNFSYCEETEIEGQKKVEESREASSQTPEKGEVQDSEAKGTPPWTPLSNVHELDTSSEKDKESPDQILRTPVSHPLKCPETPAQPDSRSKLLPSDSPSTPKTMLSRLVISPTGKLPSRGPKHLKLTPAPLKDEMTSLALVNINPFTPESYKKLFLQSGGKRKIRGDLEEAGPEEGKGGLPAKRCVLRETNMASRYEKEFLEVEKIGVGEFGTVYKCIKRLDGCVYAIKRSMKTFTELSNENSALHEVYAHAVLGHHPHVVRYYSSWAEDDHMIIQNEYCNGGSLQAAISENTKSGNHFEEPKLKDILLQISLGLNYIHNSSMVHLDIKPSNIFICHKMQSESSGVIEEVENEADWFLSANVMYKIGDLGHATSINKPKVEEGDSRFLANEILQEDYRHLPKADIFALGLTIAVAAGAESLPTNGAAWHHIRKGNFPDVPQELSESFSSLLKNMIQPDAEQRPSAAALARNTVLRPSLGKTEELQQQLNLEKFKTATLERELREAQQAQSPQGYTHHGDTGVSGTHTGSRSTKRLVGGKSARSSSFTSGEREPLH

[19] = biological target: Serine/threonine-protein kinase Nek2 (Homo sapiens) (UniProt P51955); conditions: Compound concentration 1000.0 nM
[20] = biological target: Serine/threonine-protein kinase Nek4 (Homo sapiens) (UniProt P51957); conditions: Compound concentration 1000.0 nM
[21] = biological target: Serine/threonine-protein kinase SBK1 (Homo sapiens) (UniProt Q52WX2); conditions: Compound concentration 1000.0 nM
[22] = biological target: Mitotic checkpoint serine/threonine-protein kinase BUB1 (Homo sapiens) (UniProt O43683); conditions: Compound concentration 1000.0 nM
[23] = biological target: Mitogen-activated protein kinase kinase kinase 4 (Homo sapiens) (UniProt Q9Y6R4); conditions: Compound concentration 1000.0 nM
[24] = biological target: Serine/threonine-protein kinase STK11 (Homo sapiens) (UniProt Q15831); conditions: Compound concentration 1000.0 nM
[25] = tested on: Phosphatidylinositol 4,5-bisphosphate 3-kinase catalytic subunit alpha isoform (Homo sapiens), P42336 [E545K]; conditions: Compound concentration 1000.0 nM
Phosphatidylinositol 4,5-bisphosphate 3-kinase catalytic subunit alpha isoform (Homo sapiens), P42336 [E545K], sequence (P42336 whole entry E545K, canonical isoform): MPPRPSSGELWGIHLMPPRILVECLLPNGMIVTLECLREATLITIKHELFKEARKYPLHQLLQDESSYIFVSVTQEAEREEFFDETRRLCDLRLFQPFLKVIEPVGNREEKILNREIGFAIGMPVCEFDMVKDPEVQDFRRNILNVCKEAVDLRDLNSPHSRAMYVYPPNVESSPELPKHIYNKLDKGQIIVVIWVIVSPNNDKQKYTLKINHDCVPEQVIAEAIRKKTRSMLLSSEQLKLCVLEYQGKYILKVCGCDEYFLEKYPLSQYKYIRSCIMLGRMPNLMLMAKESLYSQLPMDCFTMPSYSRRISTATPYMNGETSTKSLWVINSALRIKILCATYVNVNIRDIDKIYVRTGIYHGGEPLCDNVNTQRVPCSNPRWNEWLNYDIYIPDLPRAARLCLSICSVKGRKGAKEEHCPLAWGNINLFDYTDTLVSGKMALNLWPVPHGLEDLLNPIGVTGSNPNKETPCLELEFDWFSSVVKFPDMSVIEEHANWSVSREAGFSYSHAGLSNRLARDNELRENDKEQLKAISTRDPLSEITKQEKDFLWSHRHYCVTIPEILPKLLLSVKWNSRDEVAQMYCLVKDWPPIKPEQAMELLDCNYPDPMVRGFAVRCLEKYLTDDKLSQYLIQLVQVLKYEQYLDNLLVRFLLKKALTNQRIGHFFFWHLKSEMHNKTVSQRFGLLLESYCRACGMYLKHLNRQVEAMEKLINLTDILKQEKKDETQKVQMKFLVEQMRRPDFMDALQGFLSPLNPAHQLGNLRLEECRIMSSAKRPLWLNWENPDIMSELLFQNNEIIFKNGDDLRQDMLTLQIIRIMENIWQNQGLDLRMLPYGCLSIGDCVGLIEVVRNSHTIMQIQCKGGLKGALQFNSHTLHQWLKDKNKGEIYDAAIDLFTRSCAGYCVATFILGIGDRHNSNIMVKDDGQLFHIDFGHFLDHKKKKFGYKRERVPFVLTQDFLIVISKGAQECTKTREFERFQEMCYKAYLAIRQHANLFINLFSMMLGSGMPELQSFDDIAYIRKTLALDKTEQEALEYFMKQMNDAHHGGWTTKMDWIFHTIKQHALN

[26] = biological target: Serine/threonine-protein kinase N2 (Homo sapiens) (UniProt Q16513); conditions: Compound concentration 1000.0 nM
[27] = biological target: Calcium/calmodulin-dependent protein kinase type II subunit delta (Homo sapiens) (UniProt Q13557); conditions: Compound concentration 1000.0 nM
[28] = biological target: Serine/threonine-protein kinase PLK1 (Homo sapiens) (UniProt P53350); conditions: Compound concentration 1000.0 nM
[29] = biological target: Calcium/calmodulin-dependent protein kinase type II subunit beta (Homo sapiens) (UniProt Q13554); conditions: Compound concentration 1000.0 nM
[30] = biological target: Platelet-derived growth factor receptor alpha (Homo sapiens) (UniProt P16234); conditions: Compound concentration 1000.0 nM
Platelet-derived growth factor receptor alpha (Homo sapiens), sequence (P16234 whole entry): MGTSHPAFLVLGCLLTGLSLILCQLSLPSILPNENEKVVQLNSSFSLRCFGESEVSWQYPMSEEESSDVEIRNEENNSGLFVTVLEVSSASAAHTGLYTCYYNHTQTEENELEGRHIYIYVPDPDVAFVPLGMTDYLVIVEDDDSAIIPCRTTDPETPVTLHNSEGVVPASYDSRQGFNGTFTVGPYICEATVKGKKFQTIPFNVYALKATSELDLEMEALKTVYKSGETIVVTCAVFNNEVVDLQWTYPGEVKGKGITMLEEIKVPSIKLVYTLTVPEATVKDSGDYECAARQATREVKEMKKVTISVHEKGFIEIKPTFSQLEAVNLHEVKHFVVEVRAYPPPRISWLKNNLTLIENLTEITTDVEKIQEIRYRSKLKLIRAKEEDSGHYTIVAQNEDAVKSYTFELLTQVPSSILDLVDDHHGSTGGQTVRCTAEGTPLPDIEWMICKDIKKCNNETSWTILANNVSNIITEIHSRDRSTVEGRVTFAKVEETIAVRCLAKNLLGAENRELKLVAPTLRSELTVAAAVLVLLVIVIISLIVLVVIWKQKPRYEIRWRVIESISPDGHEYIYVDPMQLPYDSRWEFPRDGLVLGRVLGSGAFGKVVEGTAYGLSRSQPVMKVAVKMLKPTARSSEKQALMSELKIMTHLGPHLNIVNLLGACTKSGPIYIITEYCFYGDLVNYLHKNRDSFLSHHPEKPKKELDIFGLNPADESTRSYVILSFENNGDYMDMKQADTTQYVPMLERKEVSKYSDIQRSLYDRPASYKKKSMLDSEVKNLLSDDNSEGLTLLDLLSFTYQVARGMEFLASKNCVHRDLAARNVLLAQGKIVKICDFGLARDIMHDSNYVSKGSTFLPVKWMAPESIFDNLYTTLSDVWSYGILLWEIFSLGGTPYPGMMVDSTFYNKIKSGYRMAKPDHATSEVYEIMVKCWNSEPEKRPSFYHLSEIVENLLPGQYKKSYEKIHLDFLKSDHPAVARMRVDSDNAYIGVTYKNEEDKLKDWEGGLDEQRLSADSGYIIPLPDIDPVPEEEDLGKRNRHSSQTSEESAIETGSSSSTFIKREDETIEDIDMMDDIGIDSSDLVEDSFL

[31] = biological target: Serine/threonine-protein kinase MRCK alpha (Homo sapiens) (UniProt Q5VT25); conditions: Compound concentration 1000.0 nM
[32] = tested on: Phosphatidylinositol 4,5-bisphosphate 3-kinase catalytic subunit alpha isoform (Homo sapiens), P42336 [C420R]; conditions: Compound concentration 1000.0 nM
Phosphatidylinositol 4,5-bisphosphate 3-kinase catalytic subunit alpha isoform (Homo sapiens), P42336 [C420R], sequence (P42336 whole entry C420R, canonical isoform): as the sequence (P42336 whole entry E545K, canonical isoform) above, with C420R, K545E counted along it

[33] = biological target: Serine/threonine-protein kinase Chk1 (Homo sapiens) (UniProt O14757); conditions: Compound concentration 1000.0 nM
[34] = tested on: Leucine-rich repeat serine/threonine-protein kinase 2 (Homo sapiens), Q5S007 [G2019S]; conditions: Compound concentration 1000.0 nM
[35] = biological target: Mitogen-activated protein kinase kinase kinase 14 (Homo sapiens) (UniProt Q99558); conditions: Compound concentration 1000.0 nM
[36] = biological target: Muscarinic acetylcholine receptor M3 (Homo sapiens) (UniProt P20309); conditions: Compound concentration 10.0 uM
Muscarinic acetylcholine receptor M3 (Homo sapiens), sequence (P20309 whole entry, looked up): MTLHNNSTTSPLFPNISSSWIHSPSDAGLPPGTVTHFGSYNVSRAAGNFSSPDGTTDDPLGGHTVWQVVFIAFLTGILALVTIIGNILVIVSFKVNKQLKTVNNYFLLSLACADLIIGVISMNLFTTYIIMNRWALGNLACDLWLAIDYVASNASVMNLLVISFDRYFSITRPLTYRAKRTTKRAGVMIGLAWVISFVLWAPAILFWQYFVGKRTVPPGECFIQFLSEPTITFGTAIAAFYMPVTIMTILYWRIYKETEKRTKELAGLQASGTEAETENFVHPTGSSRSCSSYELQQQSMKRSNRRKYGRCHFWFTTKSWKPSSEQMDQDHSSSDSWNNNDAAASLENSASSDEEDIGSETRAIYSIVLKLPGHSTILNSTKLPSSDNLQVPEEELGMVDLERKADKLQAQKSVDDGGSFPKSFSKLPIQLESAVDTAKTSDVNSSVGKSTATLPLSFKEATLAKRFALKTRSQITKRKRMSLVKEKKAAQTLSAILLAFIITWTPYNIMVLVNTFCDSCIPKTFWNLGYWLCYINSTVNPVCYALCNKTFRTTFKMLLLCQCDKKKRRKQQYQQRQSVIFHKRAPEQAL

[37] = biological target: Tyrosine-protein kinase JAK3 (Homo sapiens) (UniProt P52333); conditions: Compound concentration 1000.0 nM
[38] = biological target: Serine/threonine-protein kinase 38 (Homo sapiens) (UniProt Q15208); conditions: Compound concentration 1000.0 nM
[39] = biological target: Tyrosine-protein kinase Mer (Homo sapiens) (UniProt Q12866); conditions: Compound concentration 1000.0 nM
[40] = biological target: Hormonally up-regulated neu tumor-associated kinase (Homo sapiens) (UniProt P57058); conditions: Compound concentration 1000.0 nM
[41] = biological target: Mitogen-activated protein kinase kinase kinase 6 (Homo sapiens) (UniProt O95382); conditions: Compound concentration 1000.0 nM
[42] = biological target: Non-receptor tyrosine-protein kinase TNK1 (Homo sapiens) (UniProt Q13470); conditions: Compound concentration 1000.0 nM
[43] = biological target: Serine/threonine-protein kinase pim-3 (Homo sapiens) (UniProt Q86V86); conditions: Compound concentration 1000.0 nM
[44] = biological target: Serine/threonine-protein kinase 25 (Homo sapiens) (UniProt O00506); conditions: Compound concentration 1000.0 nM

SMILES: C[C@@H](c1cccc(C#N)c1)n1cc(Cl)cc(C(N)=O)c1=N [(S)-9s]
- residual activity [1]: 96%
- residual activity [2]: 82%
- residual activity [3]: 96%
- residual activity [4]: 82%
- residual activity [5]: 85%
- residual activity [6]: 96%
- residual activity [7]: 100%
- residual activity [8]: 100%
- residual activity [9]: 93%
- inhibition [10]: 14.8%
- residual activity [11]: 100%
- residual activity [12]: 92%
- residual activity [13]: 100%
- residual activity [14]: 87%
- residual activity [15]: 89%
- residual activity [16]: 83%
- residual activity [17]: 85%
- residual activity [18]: 77%
- residual activity [19]: 100%
- residual activity [20]: 96%
- residual activity [21]: 99%
- residual activity [22]: 93%
- residual activity [23]: 71%
- residual activity [24]: 74%
- residual activity [25]: 88%
- residual activity [26]: 100%
- residual activity [27]: 100%
- residual activity [28]: 98%
- residual activity [29]: 100%
- residual activity [30]: 100%
- residual activity [31]: 100%
- residual activity [32]: 100%
- residual activity [33]: 100%
- residual activity [34]: 100%
- residual activity [35]: 93%
- inhibition [36]: -6.17%
- residual activity [37]: 100%
- residual activity [38]: 84%
- residual activity [39]: 82%
- residual activity [40]: 100%
- residual activity [41]: 79%
- residual activity [42]: 94%
- residual activity [43]: 100%
- residual activity [44]: 100%

SMILES: C[C@H](c1cccc(C#N)c1)n1cc(Cl)cc(C(N)=O)c1=N [(R)-9s]
- residual activity [1]: 100%
- residual activity [2]: 90%
- residual activity [3]: 100%
- residual activity [4]: 92%
- residual activity [5]: 79%
- residual activity [6]: 97%
- residual activity [7]: 99%
- residual activity [8]: 100%
- residual activity [9]: 88%
- inhibition [10]: 9.99%
- residual activity [11]: 100%
- residual activity [12]: 100%
- residual activity [13]: 100%
- residual activity [14]: 100%
- residual activity [15]: 100%
- residual activity [16]: 74%
- residual activity [17]: 88%
- residual activity [18]: 97%
- residual activity [19]: 100%
- residual activity [20]: 100%
- residual activity [21]: 83%
- residual activity [22]: 75%
- residual activity [23]: 47%
- residual activity [24]: 96%
- residual activity [25]: 82%
- residual activity [26]: 100%
- residual activity [27]: 100%
- residual activity [28]: 89%
- residual activity [29]: 100%
- residual activity [30]: 94%
- residual activity [31]: 100%
- residual activity [32]: 100%
- residual activity [33]: 100%
- residual activity [34]: 100%
- residual activity [35]: 62%
- inhibition [36]: -8.15%
- residual activity [37]: 94%
- residual activity [38]: 87%
- residual activity [39]: 96%
- residual activity [40]: 89%
- residual activity [41]: 91%
- residual activity [42]: 77%
- residual activity [43]: 100%
- residual activity [44]: 100%
